Assays:
5-HT4 receptor = molecular target: T1, 5-HT4 receptor (Cavia porcellus, UniProt O70528); experiment: biochemical; assay type: binding, guinea pig; settings: [3H]GR113808 0.1 nM, guinea pig striatum membranes, 37°C, 30 min; IC50 converted to Ki; read-out: Affinity for receptor (Ki value, nM) 5-HT4
T1 construct: crude synapse membrane sample was prepared from guinea pig striatum; from tissue; host or cells: guinea pig striatum, crude synaptic membranes
Description: Specifically, crude synapse membrane sample was prepared from guinea pig striatum, suspended in 50 mM HEPES buffer (pH 7.4) and used for testing. The test compound having several different concentrations and [3H]GR113808 (final concentration 0.1 nM) were added to this suspension and allowed to react at 37°C. Thirty minutes later, the reaction mixture was filtered by suction with cell harvester. The filter was washed with 50 mM HEPES buffer, and the radioactivity on the filter was counted by liquid scintillation counter. The non-specific binding was determined in the presence of 1 µM GR113808. The concentration of the test compound necessary for 50% inhibition (IC50) was determined from a graph and converted to a Ki value.

5-HT3 receptor = molecular target: T2, 5-HT3 receptor (Rattus norvegicus, UniProt P35563); experiment: 5-HT3 receptor binding test ([3H]Granisetron, crude synapse membrane from cerebral cortex); settings: values marked * are IC50; [3H]Granisetron 1.0 nM, rat cerebral cortex membranes, 25°C, 30 min; read-out: Affinity for receptor 5-HT3 (∗ shows IC50)
T2 construct: crude synapse membrane sample was prepared from rat cerebral cortex; from tissue; host or cells: rat cerebral cortex, crude synaptic membranes
T2 sequence (P35563 24-483): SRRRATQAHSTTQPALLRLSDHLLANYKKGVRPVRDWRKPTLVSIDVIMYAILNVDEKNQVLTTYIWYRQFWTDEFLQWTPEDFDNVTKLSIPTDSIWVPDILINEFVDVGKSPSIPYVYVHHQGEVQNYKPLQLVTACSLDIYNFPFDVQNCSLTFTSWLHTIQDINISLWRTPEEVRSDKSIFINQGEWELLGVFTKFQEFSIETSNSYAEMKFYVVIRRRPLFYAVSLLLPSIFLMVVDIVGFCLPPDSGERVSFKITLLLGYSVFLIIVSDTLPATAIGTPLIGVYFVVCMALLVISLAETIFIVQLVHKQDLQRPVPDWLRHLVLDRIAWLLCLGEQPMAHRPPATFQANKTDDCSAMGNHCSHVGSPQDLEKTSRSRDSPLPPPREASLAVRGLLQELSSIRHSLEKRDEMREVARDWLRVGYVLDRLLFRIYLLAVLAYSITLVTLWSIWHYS
Description: 148, pp. 297-299 (1988)], a specific 5-HT3 receptor binding test was run using, as a tracer ligand, endo-1-methyl-N-(9-methyl-9-azabicyclo[3.3.1]non-3-yl)-1H-indazole-3-carboxamide substituted by tritium (hereinafter to be referred to as [3H]Granisetron). Specifically, crude synapse membrane sample was prepared from rat cerebral cortex, suspended in 50 mM HEPES buffer (pH 7.4) and used for testing. The test compound having several different concentrations and [3H]Granisetron (final concentration 1.0 nM) were added to this suspension and allowed to react at 25°C. Thirty minutes later, the reaction mixture was filtered by suction with cell harvester. The filter was washed with 50 mM Tris buffer (pH 7.4), and the radioactivity on the filter was counted using liquid scintillation counter or β-plate. The non-specific binding was determined in the presence of 1 µM Tropisetron. The concentration of the test compound necessary for 50% inhibition (IC50) was determined from a graph and converted to a Ki value.

Male ddY mice = experiment: Stimulation of defecation in mouse; assay type: in vivo; settings: for promotion (%) of number / promotion (%) of wet weight: 2 hours, versus vehicle; for number (of feces) / wet weight (mg) (of feces): feces excreted for 2 hours after oral administration, n=20
Description: Male ddY mice were placed in partition box, and the number and wet weight of feces excreted for 2 hours from immediately after oral administration of the compound of Example 57 were measured.

Male Hartley guinea pigs = experiment: Promotion of colonic transit in guinea pig; assay type: in vivo; settings: for ratio of colonic transit (%): colon removed one hour later; for promotion (%) of colonic transit: versus vehicle
Description: Male Hartley guinea pigs were subjected to laparotomy under ether anesthesia, and a polyethylene tube was inserted into the beginning of colon. The other end was passed under the skin to be exposed from the neck and fixed there. At day 5 postoperation, Evans blue solution was injected into the colon through the polyethylene tube. One hour later, the colon was removed, and the range of the Evans blue solution was measured, which was calculated relative to the entire length of the colon and expressed as transit ratio. The compound of Example 57 was orally administered one hour before injection of the Evans blue solution.

male Wistar rats = experiment: Promotion of gastric emptying in rats; assay type: in vivo, rat; settings: for number of pellets (remaining in stomach): stomach removed one hour later; for promotion (%) of gastric emptying: from comparison with remaining pellets in vehicle group
Description: Barium pellets (ca. 1 mm diameter) coated with polystyrene was intragastrically administered to male Wistar rats. One hour later, stomach was removed, and the remaining pellets were counted. The compound of Example 57 was orally administered one hour before administration of the pellets. The promotion ratio was calculated from the comparison with the number of remaining pellets in the group administered with vehicle.

T1 sequence (O70528 whole entry): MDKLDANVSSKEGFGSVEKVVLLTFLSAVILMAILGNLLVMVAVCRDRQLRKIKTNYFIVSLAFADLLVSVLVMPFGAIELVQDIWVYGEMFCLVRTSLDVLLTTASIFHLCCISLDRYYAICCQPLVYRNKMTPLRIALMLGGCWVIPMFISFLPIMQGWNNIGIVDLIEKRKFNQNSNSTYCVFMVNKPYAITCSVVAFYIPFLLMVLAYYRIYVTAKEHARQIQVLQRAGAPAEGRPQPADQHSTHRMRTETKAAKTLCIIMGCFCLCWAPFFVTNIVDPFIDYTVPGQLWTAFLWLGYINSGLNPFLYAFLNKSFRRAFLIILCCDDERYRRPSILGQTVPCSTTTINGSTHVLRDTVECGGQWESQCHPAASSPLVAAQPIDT

COc1cc(N)c(Cl)cc1C(=O)NCC1CCN(CCCCCC(=O)c2ccccc2)CC1 [Example 57, 4-amino-5-chloro-2-methoxy-N-((1-(6-oxo-6-phenylhexyl)piperidin-4-yl)methyl)benzamide]
Ki (5-HT4 receptor): 2.4 nM
IC50 (5-HT3 receptor): > 1000 nM
promotion (%) of number (Male ddY mice; 0.1 mg/kg p.o.): 70%
promotion (%) of wet weight (Male ddY mice; 0.1 mg/kg p.o.): 69%
number (of feces) (Male ddY mice; 0.1 mg/kg p.o.): 3.4±0.3
wet weight (mg) (of feces) (Male ddY mice; 0.1 mg/kg p.o.): 59.2 ± 6.5 mg
promotion (%) of number (Male ddY mice; 0.3 mg/kg p.o.): 135%
promotion (%) of wet weight (Male ddY mice; 0.3 mg/kg p.o.): 136%
number (of feces) (Male ddY mice; 0.3 mg/kg p.o., P<0.01): 4.7±0.5
wet weight (mg) (of feces) (Male ddY mice; 0.3 mg/kg p.o., P<0.01): 82.7 ± 11.5 mg
promotion (%) of number (Male ddY mice; 1 mg/kg p.o.): 130%
promotion (%) of wet weight (Male ddY mice; 1 mg/kg p.o.): 120%
number (of feces) (Male ddY mice; 1 mg/kg p.o., P<0.01): 4.6±0.6
wet weight (mg) (of feces) (Male ddY mice; 1 mg/kg p.o., P<0.01): 77.2 ± 11.9 mg
promotion (%) of number (Male ddY mice; 3 mg/kg p.o.): 135%
promotion (%) of wet weight (Male ddY mice; 3 mg/kg p.o.): 132%
number (of feces) (Male ddY mice; 3 mg/kg p.o., P<0.01): 4.7±0.5
wet weight (mg) (of feces) (Male ddY mice; 3 mg/kg p.o., P<0.01): 81.6 ± 10.4 mg
ratio of colonic transit (%) (Male Hartley guinea pigs; 0.1 mg/kg p.o. one hour before Evans blue injection, n=16): 54.5±8.0%
promotion (%) of colonic transit (Male Hartley guinea pigs; 0.1 mg/kg p.o.): 23%
ratio of colonic transit (%) (Male Hartley guinea pigs; 0.3 mg/kg p.o. one hour before Evans blue injection, n=16): 54.7±5.9%
promotion (%) of colonic transit (Male Hartley guinea pigs; 0.3 mg/kg p.o.): 24%
ratio of colonic transit (%) (Male Hartley guinea pigs; 1 mg/kg p.o. one hour before Evans blue injection, n=15, P<0.05): 71.8±6.9 %
promotion (%) of colonic transit (Male Hartley guinea pigs; 1 mg/kg p.o.): 62%
ratio of colonic transit (%) (Male Hartley guinea pigs; 3 mg/kg p.o. one hour before Evans blue injection, n=14, P<0.05): 73.2±6.3 %
promotion (%) of colonic transit (Male Hartley guinea pigs; 3 mg/kg p.o.): 66%
number of pellets (remaining in stomach) (male Wistar rats; 0.3 mg/kg p.o. one hour before barium pellets): 28.2 ±1.3
promotion (%) of gastric emptying (male Wistar rats; 0.3 mg/kg p.o.): 0%
number of pellets (remaining in stomach) (male Wistar rats; 1 mg/kg p.o. one hour before barium pellets): 24.3 ±2.5
promotion (%) of gastric emptying (male Wistar rats; 1 mg/kg p.o.): 14%
number of pellets (remaining in stomach) (male Wistar rats; 3 mg/kg p.o. one hour before barium pellets, P<0.05): 19.0 ±2.6
promotion (%) of gastric emptying (male Wistar rats; 3 mg/kg p.o.): 32%
number of pellets (remaining in stomach) (male Wistar rats; 10 mg/kg p.o. one hour before barium pellets, P<0.01): 13.3 ±3.0
promotion (%) of gastric emptying (male Wistar rats; 10 mg/kg p.o.): 53%

— patent publication EP0873990A1, “BENZOIC ACID COMPOUNDS AND MEDICINAL USE THEREOF” (YOSHITOMI PHARMACEUTICAL INDUSTRIES, LTD., priority 1995, dated 1997)
